Measurements published in publication PMC6096477, “Structure of a Talaromyces pinophilus GH62 arabinofuranosidase in complex with AraDNJ at 1.25 Å resolution” (Acta Crystallographica. Section F, Structural Biology …, 2018).

Biological target: T1, Talaromyces pinophilus GH62 arabinofuranosidase (Talaromyces pinophilus, UniProt A0A2H5BN17)
T1 construct: single-module GH62 enzyme, secreted from Aspergillus oryzae; about 35 kDa; amino-terminal residue Ser24; chain traced 25-325; 2 subunits in asymmetric unit; no tag mentioned
T1 sequence (A0A2H5BN17 entry or part of it): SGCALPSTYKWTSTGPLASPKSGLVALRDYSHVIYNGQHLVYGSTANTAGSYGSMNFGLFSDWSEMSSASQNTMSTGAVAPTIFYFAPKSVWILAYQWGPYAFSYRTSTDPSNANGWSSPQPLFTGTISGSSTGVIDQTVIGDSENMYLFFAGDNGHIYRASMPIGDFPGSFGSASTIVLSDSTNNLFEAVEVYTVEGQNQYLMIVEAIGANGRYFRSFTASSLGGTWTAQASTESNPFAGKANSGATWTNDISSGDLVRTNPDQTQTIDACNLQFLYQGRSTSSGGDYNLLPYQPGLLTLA
Experiment: isothermal titration calorimetry
Assay type: binding

`OC[C@@H]1NC[C@H](O)[C@H]1O` [AraDNJ, 1,4-dideoxy-l,4-imino-L-arabinitol] was tested, and the Kd was 24 ± 0.4 µM.
